In patent US5559153A, “Urea-substituted benzoylguanidines, process for their preparation, their use as pharmaceutical or diagnostic, and pharmaceutical containing them” (priority 1993, dated 1996):
Structures can show the parent of a compound that is named as a salt.

Legend:
[1] = target: T1, Na^+ /H^+ exchanger of rabbit erythrocytes (Oryctolagus cuniculus, UniProt P23791); test: Inhibition of the Na^+ /H^+ exchanger of rabbit erythrocytes (Na^+ influx by flame photometry); type: cell-based, rabbit (New Zealand White); settings: pH 7.4, 37° C., Na^+ influx in hyperosmolar salt/sucrose medium
T1 construct: Na^+ influx into the erythrocytes via Na^+ /H^+ exchange; endogenous in cells; host or cells: intact erythrocytes from blood of cholesterol-fed New Zealand White rabbits (Ivanovas)
T1 sequence (P23791 whole entry): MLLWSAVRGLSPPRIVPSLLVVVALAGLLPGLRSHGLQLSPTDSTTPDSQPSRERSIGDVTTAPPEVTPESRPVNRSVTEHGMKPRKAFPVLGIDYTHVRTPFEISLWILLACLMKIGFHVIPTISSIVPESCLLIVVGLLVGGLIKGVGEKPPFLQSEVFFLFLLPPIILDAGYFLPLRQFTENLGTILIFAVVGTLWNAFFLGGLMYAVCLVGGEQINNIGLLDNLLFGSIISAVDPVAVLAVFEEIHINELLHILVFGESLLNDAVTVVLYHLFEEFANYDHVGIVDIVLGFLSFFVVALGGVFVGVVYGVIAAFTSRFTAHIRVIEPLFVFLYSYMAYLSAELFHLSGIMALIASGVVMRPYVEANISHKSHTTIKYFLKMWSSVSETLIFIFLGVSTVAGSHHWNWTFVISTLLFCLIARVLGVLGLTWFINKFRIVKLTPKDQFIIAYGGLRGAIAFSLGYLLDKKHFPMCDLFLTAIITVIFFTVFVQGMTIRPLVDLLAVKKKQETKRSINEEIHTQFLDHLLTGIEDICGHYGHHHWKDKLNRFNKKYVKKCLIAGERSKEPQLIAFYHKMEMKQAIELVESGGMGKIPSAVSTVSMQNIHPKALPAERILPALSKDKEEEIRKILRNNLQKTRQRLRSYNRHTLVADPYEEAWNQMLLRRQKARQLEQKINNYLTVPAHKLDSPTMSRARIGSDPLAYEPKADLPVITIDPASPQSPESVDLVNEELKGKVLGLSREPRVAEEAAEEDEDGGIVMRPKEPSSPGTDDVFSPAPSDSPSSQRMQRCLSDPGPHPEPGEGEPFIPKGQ
Excerpt: Inhibition of the Na^+ /H^+ exchanger of rabbit erythrocytes:
New Zealand White rabbits (Ivanovas) received a standard diet containing 2% cholesterol for six weeks in order to activate the Na^+ /H^+ exchange and thus to be able to determine, by flame photometry, the Na^+ influx into the erythrocytes via Na^+ /H^+ exchange. The blood was removed from the aural arteries and rendered incoagulable using 25 IE/ml of potassium heparin. A part of each sample was used for the duplicate determination of the hematocrit by means of centrifugation. Aliquots of in each case 100 μl were used for measuring the initial Na^+ content of the erythrocytes.
In order to determine the amiloride-sensitive sodium influx, 100 μl of each blood sample were in each case incubated, at pH 7.4 and 37° C., in 5 ml of a hyperosmolar salt/sucrose medium (mmol/l: 140 NaCl, 3 KCl, 150 sucrose, 0.1 ouabain, 20 tris(hydroxymethyl)aminomethane). The erythrocytes were then washed three times with ice-cold MgCl2 /ouabain solution (mmol/l: 112 MgCl2, 0.1 ouabain) and hemolyzed in 2.0 ml of distilled water. The intracellular sodium content was determined by flame photometry.
The net influx of Na^+ was calculated from the difference between the initial sodium values and the sodium content of the erythrocytes following incubation. The amiloride-inhibitable sodium influx resulted from the difference in the sodium content of the erythrocytes following incubation with and without amiloride 3×10^-4 mol/l. This method was also employed in the case of the compounds according to the invention.

[2] = tested on: artificially induced ventricular fibrillation, rat hearts; settings: isolated rat hearts; cited from earlier work
[3] = tested on: cardiac arrhythmias; settings: in vivo; cited from earlier work

Row | IC50 [1] [µM] | Compound | other results
1 | 1 to 2 | N=C(N)NC(=O)c1cc(Cl)ccc1NC(=O)N1CCCCC1 [Example 1, 5-Chloro-2-(piperidinocarbonylamino)benzoylguanidine] | –
2 | 3 to 8 | CC(C)(C)NC(=O)Nc1ccc(Cl)cc1C(=O)NC(=N)N [Example 7, 5-Chloro-2-(tert-butylaminocarbonylamino)benzoylguanidine hydrochloride] | –
3 | 3 to 5 | CCNC(=S)Nc1cc(C(=O)NC(=N)N)ccc1Cl [Example 17, 4-Chloro-3-(ethylaminothiocarbonylamino)benzoylguanidine hydrochloride] | –
4 | 2 to 5 | CCCNC(=O)Nc1c(Cl)cc(C(=O)NC(=N)N)cc1Cl [Example 20, 3,5-Dichloro-4-(n-propylaminocarbonylamino)benzoylguanidine hydrochloride] | –
5 | 1 | N=C(N)NC(=O)c1cc(Cl)c(NC(=O)Nc2ccccc2)c(Cl)c1 [Example 21, 3,5-Dichloro-4-(phenylaminocarbonylamino)benzoylguanidine hydrochloride] | –

Continued, molecule first:

Row | Compound | IC50 [1] [µM] | other results
6 | CN(C)C(=O)Nc1ccc(Cl)cc1C(=O)NC(=N)N [Example 3, 5-Chloro-2-(dimethylaminocarbonylamino)benzoylguanidine hydrochloride] | 3 | –
7 | N=C(N)NC(=O)c1nc(Cl)c(N)nc1N [amiloride] | – | suppression of artificially induced ventricular fibrillation [2]: completely suppress artificially induced ventricular fibrillation; antiarrhythmic effect [3]: only weakly expressed; side effects (hypotensive and saluretic) [3]: hypotensive and saluretic effects
8 | CCN(c1nc(N)c(C(=O)NC(=N)N)nc1Cl)C(C)C [ethylisopropylamiloride] | – | suppression of artificially induced ventricular fibrillation [2]: even more potent than amiloride
